# Measured values from patent US20110098296A1, “Thiazole And Oxazole Kinase Inhibitors” (priority 2007, published 2011).
# pIC50: −log10 of the molar value.
# System: HN5 tumor cells
# Assay: Method C: Cell Growth Inhibition Assay (CellTiter-Glo), HN5
# Format: cell-based
# Conditions: Homo sapiens, 72 h, 3 days, 4-parameter fit
# How it was run: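 HT-29 and HN5 were grown in high-glucose DMEM with 10% FBS, SK-MEL-28 in EMEM with nonessential amino acids, sodium pyruvate and 10% FBS, and A375P F11s in RPMI with 10% FBS and sodium pyruvate. Cells (500/well) received 1:3 compound dilutions for 3 days, with CellTiter-Glo readout and 4-parameter IC50.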
row,SMILES,pIC50
1,"COc1cc(Nc2nccc(-c3sc(N)nc3-c3cccc(NC(=O)c4c(F)cccc4F)c3)n2)cc(OC)c1OC [Example 16, N-[3-(2-Amino-5-{2-[(3,4,5-trimethoxyphenyl)amino]pyrimidiN-4-yl}-1,3-thiazol-4-yl)phenyl]-2,6-difluorobenzamide]",> 7.00
2,"Cc1cc(-c2sc(N)nc2-c2cccc(NC(=O)c3c(F)cccc3F)c2)nc(Nc2cccc(F)c2)n1 [Example 48, N-[3-(2-Amino-5-{2-[(3-fluorophenyl)amino]-6-methyl-4-pyrimidinyl}-1,3-thiazol-4-yl)phenyl]-2,6-difluorobenzamide]",< 6.00
3,"CCNc1nc(-c2cccc(NC(=O)C3CC3)c2)c(-c2ccnc(Nc3ccc(OCCN4CCCC4)c(Cl)c3)n2)s1 [Example 63, N-{3-[5-{2-[(3-Chloro-4-{[2-(1-pyrrolidinyl)ethyl]oxy}phenyl)amino]-4-pyrimidinyl}-2-(ethylamino)-1,3-thiazol-4-yl]phenyl}cyclopropanecarboxamide]",6.00 to 7.00
4,"Nc1nc(-c2cccc(C(=O)Nc3c(F)cccc3F)c2)c(-c2ccnc(Nc3cccc(CN4CCCC4)c3)n2)s1 [Example 77, 3-[2-Amino-5-(2-{[3-(1-pyrrolidinylmethyl)phenyl]amino}-4-pyrimidinyl)-1,3-thiazol-4-yl]-N-(2,6-difluorophenyl)benzamide]",6.00 to 7.00
5,"Cc1nc(-c2cccc(NC(=O)c3c(F)cccc3F)c2)c(-c2ccnc(Nc3ccc(OCCN(C)C)c(Cl)c3)n2)s1 [Example 103, N-[3-(5-{2-[(3-Chloro-4-{[2-(dimethylamino)ethyl]oxy}phenyl)amino]-4-pyrimidinyl}-2-methyl-1,3-thiazol-4-yl)phenyl]-2,6-difluorobenzamide]",> 7.00
6,"CCc1nc(-c2cccc(NC(=O)c3c(F)cccc3F)c2)c(-c2ccnc(Nc3cccc(CN4CCCC4)c3)n2)s1 [Example 115, N-{3-[2-Ethyl-5-(2-{[3-(1-pyrrolidinylmethyl)phenyl]amino}-4-pyrimidinyl)-1,3-thiazol-4-yl]phenyl}-2,6-difluorobenzamide]",6.00 to 7.00
7,Cc1nc(-c2cccc(NC(=O)c3cc(F)ccc3F)c2)c(-c2ccnc(Nc3ccc(OCCN(C)C)c(Cl)c3)n2)o1 [Example 142],6.00 to 7.00
